According to article PMC6522510 (Nature Communications, 2019):

What was measured:
Parameters in all cases: species or system AML cell lines (8); Primary HTS, single concentration about 10 uM, Cell Titer Glo viability; log10 luminescence, per cent inhibition relative to cycloheximide control
Settings in all cases: 72 h, relative to cycloheximide control, log10 luminescence; inhibitor
[1] = tested on: MV4-11
[2] = tested on: CMK
[3] = tested on: ML-2
[4] = tested on: M07e
[5] = tested on: CMS
[6] = tested on: CHRF288-11
[7] = tested on: U937
[8] = tested on: MOLM-13

Molecule `COc1ccc2ncnc(Nc3ccc(OCc4ccccc4)cc3)c2c1` [SJ000573210-1, 0142W 95C*D] has an MV4-11 %inh [1] of 1.39%, a CMK %inh [2] of 1.162% and an ML-2 %inh [3] of -0.6695%. For the same molecule, the M07e %inh [4] was -3.821%, the CMS %inh [5] was 0.3657% and the CHRF288-11 %inh [6] was -3.911%. For the same molecule, the U937 %inh [7] was -0.1655% and the MOLM-13 %inh [8] was 13.25%.
Work on `CCn1c(-c2nonc2N)nc2cncc(C(=O)N3CC[C@H](N)C3)c21` [SJ000573211-1, MH203936-065A1] yielded an MV4-11 %inh [1] of 35.54%, a CMK %inh [2] of 50.04% and an ML-2 %inh [3] of 13.35%. The M07e %inh [4] was 8.501%, the CMS %inh [5] was 6.352% and the CHRF288-11 %inh [6] was 24.28%. For the same molecule, the U937 %inh [7] was 24.07% and the MOLM-13 %inh [8] was 12.04%.
`CC1=C(C(=O)Nc2ccc3[nH]ncc3c2)C(c2ccc(F)cc2)NC(=O)N1` (stereo not shown) [SJ000573212-1, SD203460-064A1] showed an MV4-11 %inh [1] of 13.33%, a CMK %inh [2] of 22.73% and an ML-2 %inh [3] of 7.379%. It also gave an M07e %inh [4] of 2.046%, a CMS %inh [5] of 3.347% and a CHRF288-11 %inh [6] of 14.28%. The U937 %inh [7] was 0.2192% and the MOLM-13 %inh [8] was -1.98%.
`O=C1Nc2ccc(-c3cccnc3)cc2C1=Cc1cc(Br)c(O)c(Br)c1` [SJ000573213-1, R10489/16/2] was tested, and the MV4-11 %inh [1] was -0.07867%, the CMK %inh [2] was 0.4308% and the ML-2 %inh [3] was 4.287%. The M07e %inh [4] was 2.589%, the CMS %inh [5] was -1.986% and the CHRF288-11 %inh [6] was 4.693%. The U937 %inh [7] was -1.775% and the MOLM-13 %inh [8] was 4.678%.
Molecule `CCNC(=O)O[C@H]1CN[C@H](C#Cc2cc3ncnc(Nc4ccc(OCc5cccc(F)c5)c(Cl)c4)c3s2)C1` [SJ000573214-1, U20348/125/4] has an MV4-11 %inh [1] of 0.06144%, a CMK %inh [2] of -1.307% and an ML-2 %inh [3] of 3.073%. For the same molecule, the M07e %inh [4] was 3.561%, the CMS %inh [5] was 3.079% and the CHRF288-11 %inh [6] was 5.639%. For the same molecule, the U937 %inh [7] was -0.8245% and the MOLM-13 %inh [8] was 0.5641%.
Molecule `O=C(O[C@H]1CN[C@H](C#Cc2cc3ncnc(Nc4ccc5c(cnn5Cc5ccccc5)c4)c3s2)C1)N1CCOCC1` [SJ000573215-1, U19635/172/2] has an MV4-11 %inh [1] of 1.975%, a CMK %inh [2] of 78.93% and an ML-2 %inh [3] of 2.941%. It also gave an M07e %inh [4] of -0.8707%, a CMS %inh [5] of 5.16% and a CHRF288-11 %inh [6] of 51%. For the same molecule, the U937 %inh [7] was 3.001% and the MOLM-13 %inh [8] was 2.242%.
Molecule `COc1cccc(-n2ncc3c(N/N=C/c4cccc(F)c4)ncnc32)c1` [SJ000573217-1, U18028/186/1] has an MV4-11 %inh [1] of -3.164%, a CMK %inh [2] of -7.034% and an ML-2 %inh [3] of 0.8639%. It also gave an M07e %inh [4] of -2.637%, a CMS %inh [5] of 0.08051% and a CHRF288-11 %inh [6] of -0.7991%. The U937 %inh [7] was -3.323% and the MOLM-13 %inh [8] was -3.305%.
`COc1ccc2[nH]c3c4[nH]c5ccc(OC)cc5c4c4c(c3c2c1)C(=O)NC4=O` [SJ000573218-1, 3744W 92C*D] gave an MV4-11 %inh [1] of 76.35%, a CMK %inh [2] of 26.51% and an ML-2 %inh [3] of 9.324%. For the same molecule, the M07e %inh [4] was 25.27%, the CMS %inh [5] was 16.49% and the CHRF288-11 %inh [6] was 13.67%. For the same molecule, the U937 %inh [7] was 14.28% and the MOLM-13 %inh [8] was 81.75%.
In the case of `COc1cccc(-n2ncc3c(N/N=C/c4ccc(F)cc4)ncnc32)c1` [SJ000573219-1, U18028/188/1], the MV4-11 %inh [1] is reported as -2.52%, the CMK %inh [2] is reported as -2.994% and the ML-2 %inh [3] is reported as 1.489%. For the same molecule, the M07e %inh [4] was 4.179%, the CMS %inh [5] was 1.318% and the CHRF288-11 %inh [6] was -1.076%. For the same molecule, the U937 %inh [7] was -0.8072% and the MOLM-13 %inh [8] was 0.1437%.
In the case of `COc1ccc(-c2cc3c(N)ncnc3o2)cc1` [SJ000573220-1, R6872/65/2], the MV4-11 %inh [1] is reported as -2.253%, the CMK %inh [2] is reported as 5.591% and the ML-2 %inh [3] is reported as 2.103%. It also gave an M07e %inh [4] of 10.8%, a CMS %inh [5] of 5.247% and a CHRF288-11 %inh [6] of 23.46%. It also gave a U937 %inh [7] of -1.174% and an MOLM-13 %inh [8] of 4.813%.
With `CN1CCC(n2cnc(-c3ccc(F)cc3)c2-c2ccnc(N)n2)CC1` [SJ000573221-1, JB19236-039E1] the MV4-11 %inh [1] was 16.49%, the CMK %inh [2] was 38.27% and the ML-2 %inh [3] was 19.36%. For the same molecule, the M07e %inh [4] was 20.04%, the CMS %inh [5] was 5.129% and the CHRF288-11 %inh [6] was 35.57%. The U937 %inh [7] was 13.28% and the MOLM-13 %inh [8] was 26.24%.
For `CCn1c(-c2nonc2N)nc2cnc(Oc3cccc(NC(=O)c4ccc(OCCN5CCOCC5)cc4)c3)cc21` [SJ000573222-1, HC204505-099A1], the MV4-11 %inh [1] was 34.29%, the CMK %inh [2] was 59.96% and the ML-2 %inh [3] was 11.73%. For the same molecule, the M07e %inh [4] was -2.093%, the CMS %inh [5] was 9.487% and the CHRF288-11 %inh [6] was 16.4%. For the same molecule, the U937 %inh [7] was 38.21% and the MOLM-13 %inh [8] was 15.66%.
With `c1ccc(-c2n[nH]cc2-c2ccnc(-c3ccc(OCCn4ccnc4)cc3)c2)nc1` [SJ000573223-1, FVLN/241/112/1] the MV4-11 %inh [1] was 2.943%, the CMK %inh [2] was 2.62% and the ML-2 %inh [3] was -0.7623%. The M07e %inh [4] was -2.852%, the CMS %inh [5] was -2.708% and the CHRF288-11 %inh [6] was 4.882%. For the same molecule, the U937 %inh [7] was -2.834% and the MOLM-13 %inh [8] was 3.444%.
For `Fc1ccc(Nc2nccc(-c3c(-c4ccc(C(F)(F)F)cc4)nn4ncccc34)n2)cc1F` [SJ000573224-1, U17838/186/3], the MV4-11 %inh [1] was -1.825%, the CMK %inh [2] was 0.9298% and the ML-2 %inh [3] was 2.7%. It also gave an M07e %inh [4] of -1.97%, a CMS %inh [5] of -1.104% and a CHRF288-11 %inh [6] of -0.9437%. For the same molecule, the U937 %inh [7] was 0.5152% and the MOLM-13 %inh [8] was -1.248%.
`FC(F)(F)c1ccc(-c2nn3ncccc3c2-c2ccnc(Nc3ccc4c(c3)OCCO4)n2)cc1` [SJ000573225-1, U17838/185/2] was tested, and the MV4-11 %inh [1] was 7.035%, the CMK %inh [2] was -4.267% and the ML-2 %inh [3] was 1.234%. For the same molecule, the M07e %inh [4] was 2.059%, the CMS %inh [5] was -3.296% and the CHRF288-11 %inh [6] was 13.54%. The U937 %inh [7] was -2.674% and the MOLM-13 %inh [8] was -3.312%.
With `COc1cc(C=NNc2ncnc3c2cnn3-c2ccccc2)ccc1O` [SJ000573226-1, U14681/58/1] the MV4-11 %inh [1] was 35.25%, the CMK %inh [2] was -0.5633% and the ML-2 %inh [3] was -0.2562%. It also gave an M07e %inh [4] of 11.87%, a CMS %inh [5] of 3.107% and a CHRF288-11 %inh [6] of 10.72%. The U937 %inh [7] was 8.322% and the MOLM-13 %inh [8] was 3.51%.
With `CN(C)CCOc1ccc(-c2cc(-c3ccc4c(c3)CCC4=NO)c(-c3ccncc3)o2)cc1` [SJ000573227-1, JS84326-047A1] the MV4-11 %inh [1] was 2.356%, the CMK %inh [2] was 15.46% and the ML-2 %inh [3] was 66.89%. It also gave an M07e %inh [4] of 14.13%, a CMS %inh [5] of 6.225% and a CHRF288-11 %inh [6] of 127%. For the same molecule, the U937 %inh [7] was 9.989% and the MOLM-13 %inh [8] was 21.06%.
For `CCc1nccc2c1nc(-c1nonc1N)n2CC` [SJ000573228-1, DW100508-159A1], the MV4-11 %inh [1] was 4.392%, the CMK %inh [2] was 3.989% and the ML-2 %inh [3] was 3.812%. It also gave an M07e %inh [4] of -1.816%, a CMS %inh [5] of -0.9805% and a CHRF288-11 %inh [6] of 7.841%. The U937 %inh [7] was 6.241% and the MOLM-13 %inh [8] was 4.708%.
`Cn1c(-c2nonc2N)nc2cnccc21` [SJ000573229-1, SD100950-025A1] was tested, and the MV4-11 %inh [1] was 1.313%, the CMK %inh [2] was 8.868% and the ML-2 %inh [3] was 1.359%. It also gave an M07e %inh [4] of -6.783%, a CMS %inh [5] of 2.573% and a CHRF288-11 %inh [6] of 1.476%. For the same molecule, the U937 %inh [7] was 2.832% and the MOLM-13 %inh [8] was 0.5998%.
In the case of `COc1ccc(-c2nn3ncccc3c2-c2ccnc(Nc3ccc(F)c(F)c3)n2)cc1` [SJ000573231-1, U17838/182/3], the MV4-11 %inh [1] is reported as -1.012%, the CMK %inh [2] is reported as 1.273% and the ML-2 %inh [3] is reported as 2.035%. The M07e %inh [4] was -2.16%, the CMS %inh [5] was 1.385% and the CHRF288-11 %inh [6] was -2.425%. The U937 %inh [7] was -1.69% and the MOLM-13 %inh [8] was -1.234%.
`COc1ccc2c(-c3ccnc(Nc4cccc(OC(F)(F)F)c4)n3)cnn2n1` [SJ000573232-1, U17838/93/4] showed an MV4-11 %inh [1] of 0.503%, a CMK %inh [2] of -2.18% and an ML-2 %inh [3] of 8.399%. The M07e %inh [4] was 3.247%, the CMS %inh [5] was 1.867% and the CHRF288-11 %inh [6] was 5.074%. The U937 %inh [7] was 2.538% and the MOLM-13 %inh [8] was -2.645%.
For `CCOc1ccc2c(-c3ccnc(Nc4cc(OC)cc(C(F)(F)F)c4)n3)cnn2n1` [SJ000573233-1, U17838/82/6], the MV4-11 %inh [1] was 0.1159%, the CMK %inh [2] was -2.522% and the ML-2 %inh [3] was 0.4459%. For the same molecule, the M07e %inh [4] was 5.562%, the CMS %inh [5] was 0.7407% and the CHRF288-11 %inh [6] was 13.25%. For the same molecule, the U937 %inh [7] was 1.137% and the MOLM-13 %inh [8] was -2.068%.
In the case of `Clc1ccc(CNc2nccc(-c3cnn4ncccc34)n2)cc1` [SJ000573234-1, U16767/129/1], the MV4-11 %inh [1] is reported as 36.98%, the CMK %inh [2] is reported as 3.942% and the ML-2 %inh [3] is reported as 6.981%. For the same molecule, the M07e %inh [4] was 7.216%, the CMS %inh [5] was 12.69% and the CHRF288-11 %inh [6] was 14.43%. For the same molecule, the U937 %inh [7] was 20.4% and the MOLM-13 %inh [8] was 8.357%.
